Measurements as given in patent US20220175749A1, “LANABECESTAT FOR WEIGHT LOSS” (ASTRAZENECA AB, priority 2019, published 2022).
Marks after values point to notes of the source that are not given here.

Assays:
Type in all cases: in vivo, human
[1] = Phase 2/3 104-week placebo-controlled study of lanabecestat in early Alzheimer's Disease: effect on weight; conditions: for Weight decrease ≥ 7%, (%): placebo 12.7; for mean weight change: completers at week 104, placebo 0.0 kg
Excerpt: A Phase 2/3, multicenter, randomized, 104-week, double-blind, placebo-controlled, global study of lanabecestat in patients with early Alzheimer's Disease (AD), defined as the continuum of patients with mild cognitive impairment (MCI) due to AD and patients diagnosed with mild AD dementia.
Lanabecestat, i.e., the camsylate salt of (1r,1′R,4R)-4-methoxy-5″-methyl-6′-[5-(prop-1-yn-1-yl)pyridin-3-yl]-3′H-dispiro[cyclohexane-1,2′-indene-1′,2″-imidazol]-4″-amine
was provided orally once daily for 104 weeks at 20 mg or 50 mg and compared to the results for once daily administration of placebo.
(§1) The key inclusion criteria for the study were as follows: • Population aged 55 to 85 years old; • Mild AD: meet National Institute on Aging and the Alzheimer's Association (NIA-AA) criteria with a Clinical Dementia Rating Scale-Global Score (CDR-GS) of 0.5 or 1; • MCI: meet NIA-AA criteria with a CDR-GS of 0.5; • CDR memory box score ≥0.5; • Mini-Mental State Examination (MMSE)≥20; • Repeatable Battery for the Assessment of Neuropsychological Status Delayed Memory Index (RBANS DMI)≤85; • Study partner; • Amyloid positive • Cerebrospinal fluid; or • Florbetapir amyloid Positron Emission Tomography (PET); or • Historical amyloid PET.
(§2) The key exclusion criteria for the study were as follows: • Unstable medical conditions or medications; • Magnetic Resonance Imaging (MRI): >5 microhemorrhages, significant cerebrovascular pathology, or other pathologies; • QT interval adjusted for heart rate using the Fridericia formula (QTcF) >470 ms; • History of vitiligo and/or current evidence of post-inflammatory hypo-pigmentation or exposure to depigmenting agents.
Comparing completers at week 104, the mean weight change was for 0.0 kg for placebo (n=202), −0.8 kg for lanabecestat 20 mg (n=187), and −1.9 kg for lanabecestat 50 mg (n=178). The overall p-value and pairwise p-value compared to placebo was ≤0.05 (nominal p-value, not adjusted for multiplicity).

[2] = Phase 3 study of lanabecestat in mild AD dementia, 78-week placebo-controlled period: effect on weight; conditions: for Weight decrease ≥ 7%, (%): placebo 6.3; for mean weight change: completers at week 78, placebo −0.2 kg
Protocol: A Phase 3, multicenter, randomized, double-blind, global study of lanabecestat in patients with mild AD dementia that included a 78-week placebo-controlled period, for which results are provided below.
Lanabecestat was provided orally once daily for 78 weeks at 20 mg or 50 mg and compared to the results for once daily administration of placebo.
as §1, with “years;” for “years old;”, “1,” for “1; • MCI: meet NIA-AA criteria”, “with” for “with a CDR-GS of 0.5; • CDR”, “(MMSE) score 20-26;” for “(MMSE)≥20; • Repeatable Battery for the Assessment of Neuropsychological Status Delayed Memory Index (RBANS DMI)≤85;”
as §2, with “were:” for “were as follows:”, “resonance imaging” for “Resonance Imaging”, “hypo-pigmentation.” for “hypo-pigmentation or exposure to depigmenting agents.”
Comparing completers at week 78, the mean weight change was −0.2 kg for placebo (n=24), −1.4 kg for lanabecestat 20 mg (n=27), and −2.9 kg for lanabecestat 50 mg (n=20). The overall p-value and pairwise p-value compared to placebo was ≤0.05 (nominal p-value, not adjusted for multiplicity).

[3] = Combined analysis of the two studies of Examples 1 and 2: weight change from baseline and weight decrease over time; conditions: for mean (SD) kg change from baseline: 52 weeks
Protocol: A further analysis of the subjects in the two studies described in Examples 1 and 2 above was performed, for which results are provided below.
FIGS. 1-3 show weight change from baseline over the course of the 104 week studies. […] At 52 weeks, the mean (SD) kg change from baseline in the Lanabecestat 50 mg group versus placebo was −1.5 kg (4.4) vs +0.1 kg (3.4).
At 52 weeks, the mean (SD) kg change from baseline in the Lanabecestat 50 mg group versus placebo was −0.65 kg (3.4) vs +0.3 kg (3.3).
Table 10 provides data for the weight decrease over time for the population with a baseline BMI>25 kg/m^2 versus the overall population, showing that there is a greater percent decrease in weight in the higher BMI group versus the overall population.

[4] = week 26, all patients, L20 (20 mg), N=1080
[5] = week 26, all patients, L50 (50 mg), N=1047
[6] = week 26, patients with baseline BMI > 25, L20 (20 mg), N=532
[7] = week 26, patients with baseline BMI > 25, L50 (50 mg), N=494
[8] = week 52, all patients, L20 (20 mg), N=726
[9] = week 52, all patients, L50 (50 mg), N=716
[10] = week 52, patients with baseline BMI > 25, L20 (20 mg), N=348
[11] = week 52, patients with baseline BMI > 25, L50 (50 mg), N=348
[12] = week 78, all patients, L20 (20 mg), N=366
[13] = week 78, all patients, L50 (50 mg), N=347
[14] = week 78, patients with baseline BMI > 25, L20 (20 mg), N=170
[15] = week 78, patients with baseline BMI > 25, L50 (50 mg), N=161
[16] = week 104, all patients, L20 (20 mg), N=187
[17] = week 104, all patients, L50 (50 mg), N=178
[18] = week 104, patients with baseline BMI > 25, L20 (20 mg), N=89
[19] = week 104, patients with baseline BMI > 25, L50 (50 mg), N=77

Structure (SMILES): CC#Cc1cncc(-c2ccc3c(c2)[C@@]2(N=C(C)C(N)=N2)[C@]2(CC[C@H](OC)CC2)C3)c1 [Lanabecestat, (1r,1′R,4R)-4-methoxy-5″-methyl-6′-[5-(prop-1-yn-1-yl)pyridin-3-yl]-3′H-dispiro[cyclohexane-1,2′-indene-1′,2″-imidazol]-4″-amine]
- Weight decrease ≥ 7%, (%) ([1]; 20 mg, N=728): (21.2)* %
- Weight decrease ≥ 7%, (%) ([1]; 50 mg, N=723): (24.9)* %
- mean weight change ([1]; lanabecestat 20 mg once daily oral, n=187): -0.8 kg
- mean weight change ([1]; lanabecestat 50 mg once daily oral, n=178): -1.9 kg
- Weight decrease ≥ 7%, (%) ([2]; 20 mg, N=570): (9.5) %
- Weight decrease ≥ 7%, (%) ([2]; 50 mg, N=545): (14.5)* %
- mean weight change ([2]; lanabecestat 20 mg once daily oral, n=27): -1.4 kg
- mean weight change ([2]; lanabecestat 50 mg once daily oral, n=20): -2.9 kg
- weight loss of ≥5% and ≥10% versus placebo ([3]; 50 mg, at 2 years): statistically significant weight loss
- mean (SD) kg change from baseline ([3]; baseline BMI>25 kg/m^2, 50 mg, SD 5.2, placebo −0.4 kg (3.6)): -2.5 kg
- mean (SD) kg change from baseline ([3]; baseline BMI≤25 kg/m^2, 50 mg, SD 3.4, placebo +0.3 kg (3.3)): -0.65 kg
- mean (SD) kg change from baseline ([3]; overall population, 50 mg, SD 4.4, placebo +0.1 kg (3.4)): -1.5 kg
- Weight loss ≥5%, % of patients [3, 4]: (14%)***
- Weight loss ≥5%, n patients [3, 4]: 147
- Weight loss ≥10%, % of patients [3, 4]: 1%
- Weight loss ≥10%, n patients [3, 4]: 15
- Weight loss ≥15%, % of patients [3, 4]: 0.3%
- Weight loss ≥15%, n patients [3, 4]: 3
- Weight loss ≥5%, % of patients [3, 5]: (16%)***
- Weight loss ≥5%, n patients [3, 5]: 172
- Weight loss ≥10%, % of patients [3, 5]: (3%)**
- Weight loss ≥10%, n patients [3, 5]: 28
- Weight loss ≥15%, % of patients [3, 5]: 0.5%
- Weight loss ≥15%, n patients [3, 5]: 5
- Weight loss ≥5%, % of patients [3, 6]: (16%)***
- Weight loss ≥5%, n patients [3, 6]: 87
- Weight loss ≥10%, % of patients [3, 6]: 2%
- Weight loss ≥10%, n patients [3, 6]: 11
- Weight loss ≥15%, % of patients [3, 6]: 0.6%
- Weight loss ≥15%, n patients [3, 6]: 3
- Weight loss ≥5%, % of patients [3, 7]: (18%)***
- Weight loss ≥5%, n patients [3, 7]: 90
- Weight loss ≥10%, % of patients [3, 7]: 4%
- Weight loss ≥10%, n patients [3, 7]: 20
- Weight loss ≥15%, % of patients [3, 7]: 1%
- Weight loss ≥15%, n patients [3, 7]: 3
- Weight loss ≥5%, % of patients [3, 8]: (19%)***
- Weight loss ≥5%, n patients [3, 8]: 139
- Weight loss ≥10%, % of patients [3, 8]: 5%
- Weight loss ≥10%, n patients [3, 8]: 35
- Weight loss ≥15%, % of patients [3, 8]: 1%
- Weight loss ≥15%, n patients [3, 8]: 8
- Weight loss ≥5%, % of patients [3, 9]: (25%)***
- Weight loss ≥5%, n patients [3, 9]: 180
- Weight loss ≥10%, % of patients [3, 9]: (5%)**
- Weight loss ≥10%, n patients [3, 9]: 39
- Weight loss ≥15%, % of patients [3, 9]: 1%
- Weight loss ≥15%, n patients [3, 9]: 8
- Weight loss ≥5%, % of patients [3, 10]: (24%)***
- Weight loss ≥5%, n patients [3, 10]: 82
- Weight loss ≥10%, % of patients [3, 10]: 7%
- Weight loss ≥10%, n patients [3, 10]: 26
- Weight loss ≥15%, % of patients [3, 10]: 2%
- Weight loss ≥15%, n patients [3, 10]: 8
- Weight loss ≥5%, n patients [3, 11]: 104
- Weight loss ≥10%, % of patients [3, 11]: 7%
- Weight loss ≥10%, n patients [3, 11]: 26
- Weight loss ≥15%, % of patients [3, 11]: 2%
- Weight loss ≥15%, n patients [3, 11]: 6
- Weight loss ≥5%, % of patients [3, 12]: (23%)**
- Weight loss ≥5%, n patients [3, 12]: 85
- Weight loss ≥10%, % of patients [3, 12]: 7%
- Weight loss ≥10%, n patients [3, 12]: 26
- Weight loss ≥15%, % of patients [3, 12]: 2%
- Weight loss ≥15%, n patients [3, 12]: 9
- Weight loss ≥5%, % of patients [3, 13]: (31%)***
- Weight loss ≥5%, n patients [3, 13]: 107
- Weight loss ≥10%, % of patients [3, 13]: (10%)***
- Weight loss ≥10%, n patients [3, 13]: 36
- Weight loss ≥15%, % of patients [3, 13]: 2%
- Weight loss ≥15%, n patients [3, 13]: 7
- Weight loss ≥5%, % of patients [3, 14]: (31%)*
- Weight loss ≥5%, n patients [3, 14]: 52
- Weight loss ≥10%, % of patients [3, 14]: 10%
- Weight loss ≥10%, n patients [3, 14]: 17
- Weight loss ≥15%, % of patients [3, 14]: 5%
- Weight loss ≥15%, n patients [3, 14]: 9
- Weight loss ≥5%, % of patients [3, 15]: (35%)**
- Weight loss ≥5%, n patients [3, 15]: 57
- Weight loss ≥10%, % of patients [3, 15]: 12%
- Weight loss ≥10%, n patients [3, 15]: 20
- Weight loss ≥15%, % of patients [3, 15]: 3%
- Weight loss ≥15%, n patients [3, 15]: 5
- Weight loss ≥5%, % of patients [3, 16]: 26%
- Weight loss ≥5%, n patients [3, 16]: 48
- Weight loss ≥10%, % of patients [3, 16]: 9%
- Weight loss ≥10%, n patients [3, 16]: 16
- Weight loss ≥15%, % of patients [3, 16]: 2%
- Weight loss ≥15%, n patients [3, 16]: 4
- Weight loss ≥5%, % of patients [3, 17]: (38%)***
- Weight loss ≥5%, n patients [3, 17]: 67
- Weight loss ≥10%, % of patients [3, 17]: (17%)***
- Weight loss ≥10%, n patients [3, 17]: 31
- Weight loss ≥15%, % of patients [3, 17]: 3%
- Weight loss ≥15%, n patients [3, 17]: 6
- Weight loss ≥5%, % of patients [3, 18]: 30%
- Weight loss ≥5%, n patients [3, 18]: 27
- Weight loss ≥10%, % of patients [3, 18]: 15%
- Weight loss ≥10%, n patients [3, 18]: 13
- Weight loss ≥15%, % of patients [3, 18]: 4 (4%)
- Weight loss ≥15%, n patients [3, 18]: 4 (4%)
- Weight loss ≥5%, % of patients [3, 19]: (42%)**
- Weight loss ≥5%, n patients [3, 19]: 32
- Weight loss ≥10%, % of patients [3, 19]: 19%
- Weight loss ≥15%, % of patients [3, 19]: 4%
- Weight loss ≥15%, n patients [3, 19]: 3
